Measured values as given in patent EP4722219A1 (Gan & Lee Pharmaceuticals Co., Ltd., priority 2023, dated 2024).

Assays:
Assay type in all cases: cell-based
SMARCA4 [1] = target: T1, SMARCA4 (Homo sapiens, UniProt P51532); assay: SMARCA4 degradation in HeLa cells (Western blot); design: endogenous in cells; details: 4 hours; for Dmax at 0.001 µM / Dmax at 0.08 µM: read-out: Degradation rate of SMARCA4 in HeLa cells (%)
Protocol: HeLa cells were seeded at 1.2 x 10^5 cells/well in a 6-well plate. 2 mL of EMEM medium supplemented with 10% FBS was added to each well and the culture dish was incubated overnight to allow the cells to adhere. […] The cells were returned to the incubator and incubated for another 4 hours.
(§1) After 4 hours, cells were harvested, the culture medium was aspirated, and the cells were rinsed once with 1 mL/well PBS. The PBS was aspirated, and 40 µL/well of RIPA lysis buffer containing protease inhibitors was added. After lysis and centrifugation, total protein extracts were obtained, and protein concentration in the extracts was determined by BCA assay. Protein electrophoresis was performed by SDS-PAGE, followed by constant voltage electrophoresis at 100 V for 60 minutes and the protein was then transferred to a PVDF membrane. The PVDF membrane was blocked in 5% skim milk powder for 1 hour at room temperature. […] After washing the membrane, secondary antibodies were added and incubated at room temperature for 1 hour (protected from the light). After washing, the membrane was exposed using an Odyssey luminometer. Grayscale analysis of bands was performed using Image Studio software.
(§2) The degradation rate (%) of SMARCA2/4 by the PROTAC compounds of the present invention in HeLa cells and SW1573 cells is shown in Table 10. Table 10 Degradation rate of SMARCA2/4 by PROTAC compounds of the present invention in HeLa cells and SW1573 cells (%)

SMARCA4 [2] = target: T1, SMARCA4; assay: SMARCA4 degradation in SW1573 cells (Western blot); design: endogenous in cells; host or cells: SW1573; details: 24 hours; for Dmax at 0.001 µM / Dmax at 0.08 µM: read-out: Degradation rate of SMARCA4 in SW1573 cells (%)
Protocol: SW1573 cells were seeded at 2x10^5Cells/well in a 6-well plate. 2 mL of EMEM medium supplemented with 10% FBS was added to each well and was incubated overnight to allow cell attachment. […] The cells were returned to the incubator and incubated for another 24 hours.
as §1, with “After 24” for “After 4”, “the” for “the culture”
as §2

SMARCA2 [3] = target: T2, SMARCA2 (Homo sapiens, UniProt P51531); assay: SMARCA2 degradation in HeLa cells (Western blot); design: endogenous in cells; details: 4 hours
Protocol: (§3) Test Example 10 Degradation rate (%) of SMARCA2/4 by the PROTAC compounds of the present invention in HeLa cells and SW1573 cells
(§4) HeLa cells were seeded at 1.2 x 10^5 cells/well in a 6-well plate. 2 mL of EMEM medium supplemented with 10% FBS was added to each well and the culture dish was incubated overnight to allow the cells to adhere. The next day, 1 µL of 160 µM and 1 µL of 2 µM compound were added to the corresponding wells, resulting in final compound concentrations of 80 nM and 1 nM, respectively, and a final DMSO concentration of 0.05%. The cells were returned to the incubator and incubated for another 4 hours.
(§5) After 4 hours, cells were harvested, the culture medium was aspirated, and the cells were rinsed once with 1 mL/well PBS. The PBS was aspirated, and 40 µL/well of RIPA lysis buffer containing protease inhibitors was added. After lysis and centrifugation, total protein extracts were obtained, and protein concentration in the extracts was determined by BCA assay. Protein electrophoresis was performed by SDS-PAGE, followed by constant voltage electrophoresis at 100 V for 60 minutes and the protein was then transferred to a PVDF membrane. The PVDF membrane was blocked in 5% skim milk powder for 1 hour at room temperature. Primary antibodies (SMARCA2: CST#11966S, SMARCA4: CST#49360S, GAPDH: CST#5174S) were added and incubated overnight at 4°C. After washing the membrane, secondary antibodies were added and incubated at room temperature for 1 hour (protected from the light). After washing, the membrane was exposed using an Odyssey luminometer. Grayscale analysis of bands was performed using Image Studio software.
as §2

SMARCA2 [4] = target: T2, SMARCA2; assay: SMARCA2 degradation in SW1573 cells (Western blot); design: endogenous in cells; host or cells: SW1573; details: 24 hours
Protocol: as §3
as §4, with “SW1573” for “HeLa”, “2x10^5Cells/well” for “1.2 x 10^5 cells/well”, “and” for “and the culture dish”, “cell attachment.” for “the cells to adhere.”, “wells for treatment,” for “wells,”, “24” for “4”
as §5, with “After 24” for “After 4”, “the” for “the culture”
as §2

T1 sequence (P51532 whole entry): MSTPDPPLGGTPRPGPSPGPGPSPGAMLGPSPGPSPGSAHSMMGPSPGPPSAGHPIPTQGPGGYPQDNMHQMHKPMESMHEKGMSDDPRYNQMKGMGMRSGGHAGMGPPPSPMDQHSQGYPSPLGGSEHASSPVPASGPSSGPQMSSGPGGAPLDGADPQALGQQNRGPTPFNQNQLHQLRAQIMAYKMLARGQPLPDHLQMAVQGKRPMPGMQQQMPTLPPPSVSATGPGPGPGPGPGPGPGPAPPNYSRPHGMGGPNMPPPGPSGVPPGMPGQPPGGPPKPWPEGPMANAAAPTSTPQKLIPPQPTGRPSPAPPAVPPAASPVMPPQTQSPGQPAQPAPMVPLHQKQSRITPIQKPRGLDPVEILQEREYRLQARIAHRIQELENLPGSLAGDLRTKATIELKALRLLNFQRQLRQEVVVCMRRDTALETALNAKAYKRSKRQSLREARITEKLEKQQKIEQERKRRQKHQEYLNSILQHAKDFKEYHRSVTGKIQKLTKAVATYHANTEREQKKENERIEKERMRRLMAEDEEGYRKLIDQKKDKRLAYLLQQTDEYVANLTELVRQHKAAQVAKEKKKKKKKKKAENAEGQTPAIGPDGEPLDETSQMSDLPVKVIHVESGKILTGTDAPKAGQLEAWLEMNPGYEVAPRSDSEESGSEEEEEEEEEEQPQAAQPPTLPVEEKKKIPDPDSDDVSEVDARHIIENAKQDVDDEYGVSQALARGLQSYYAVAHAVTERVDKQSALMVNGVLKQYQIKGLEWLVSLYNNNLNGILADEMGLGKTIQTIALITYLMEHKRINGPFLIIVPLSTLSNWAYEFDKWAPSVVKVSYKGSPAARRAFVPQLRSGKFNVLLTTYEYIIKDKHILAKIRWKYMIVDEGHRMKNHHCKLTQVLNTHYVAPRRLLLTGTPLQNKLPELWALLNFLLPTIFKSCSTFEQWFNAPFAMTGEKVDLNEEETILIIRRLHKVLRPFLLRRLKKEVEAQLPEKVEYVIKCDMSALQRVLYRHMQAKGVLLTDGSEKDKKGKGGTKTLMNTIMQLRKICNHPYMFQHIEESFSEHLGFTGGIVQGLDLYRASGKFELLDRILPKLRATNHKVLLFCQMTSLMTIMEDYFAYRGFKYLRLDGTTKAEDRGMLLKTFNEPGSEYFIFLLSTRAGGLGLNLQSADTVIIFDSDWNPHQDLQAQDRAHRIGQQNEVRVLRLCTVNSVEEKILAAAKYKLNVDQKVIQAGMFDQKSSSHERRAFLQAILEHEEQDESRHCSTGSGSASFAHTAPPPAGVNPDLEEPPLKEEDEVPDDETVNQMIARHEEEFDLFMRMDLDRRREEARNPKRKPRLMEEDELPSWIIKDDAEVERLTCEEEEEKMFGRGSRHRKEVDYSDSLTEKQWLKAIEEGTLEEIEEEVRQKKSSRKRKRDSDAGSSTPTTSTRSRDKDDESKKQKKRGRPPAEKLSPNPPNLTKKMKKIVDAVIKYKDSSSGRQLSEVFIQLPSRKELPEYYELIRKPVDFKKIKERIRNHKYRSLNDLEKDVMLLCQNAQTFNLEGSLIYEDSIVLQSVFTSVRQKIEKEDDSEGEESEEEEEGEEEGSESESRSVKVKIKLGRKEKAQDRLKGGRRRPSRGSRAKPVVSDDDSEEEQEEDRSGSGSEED
T2 sequence (P51531 whole entry): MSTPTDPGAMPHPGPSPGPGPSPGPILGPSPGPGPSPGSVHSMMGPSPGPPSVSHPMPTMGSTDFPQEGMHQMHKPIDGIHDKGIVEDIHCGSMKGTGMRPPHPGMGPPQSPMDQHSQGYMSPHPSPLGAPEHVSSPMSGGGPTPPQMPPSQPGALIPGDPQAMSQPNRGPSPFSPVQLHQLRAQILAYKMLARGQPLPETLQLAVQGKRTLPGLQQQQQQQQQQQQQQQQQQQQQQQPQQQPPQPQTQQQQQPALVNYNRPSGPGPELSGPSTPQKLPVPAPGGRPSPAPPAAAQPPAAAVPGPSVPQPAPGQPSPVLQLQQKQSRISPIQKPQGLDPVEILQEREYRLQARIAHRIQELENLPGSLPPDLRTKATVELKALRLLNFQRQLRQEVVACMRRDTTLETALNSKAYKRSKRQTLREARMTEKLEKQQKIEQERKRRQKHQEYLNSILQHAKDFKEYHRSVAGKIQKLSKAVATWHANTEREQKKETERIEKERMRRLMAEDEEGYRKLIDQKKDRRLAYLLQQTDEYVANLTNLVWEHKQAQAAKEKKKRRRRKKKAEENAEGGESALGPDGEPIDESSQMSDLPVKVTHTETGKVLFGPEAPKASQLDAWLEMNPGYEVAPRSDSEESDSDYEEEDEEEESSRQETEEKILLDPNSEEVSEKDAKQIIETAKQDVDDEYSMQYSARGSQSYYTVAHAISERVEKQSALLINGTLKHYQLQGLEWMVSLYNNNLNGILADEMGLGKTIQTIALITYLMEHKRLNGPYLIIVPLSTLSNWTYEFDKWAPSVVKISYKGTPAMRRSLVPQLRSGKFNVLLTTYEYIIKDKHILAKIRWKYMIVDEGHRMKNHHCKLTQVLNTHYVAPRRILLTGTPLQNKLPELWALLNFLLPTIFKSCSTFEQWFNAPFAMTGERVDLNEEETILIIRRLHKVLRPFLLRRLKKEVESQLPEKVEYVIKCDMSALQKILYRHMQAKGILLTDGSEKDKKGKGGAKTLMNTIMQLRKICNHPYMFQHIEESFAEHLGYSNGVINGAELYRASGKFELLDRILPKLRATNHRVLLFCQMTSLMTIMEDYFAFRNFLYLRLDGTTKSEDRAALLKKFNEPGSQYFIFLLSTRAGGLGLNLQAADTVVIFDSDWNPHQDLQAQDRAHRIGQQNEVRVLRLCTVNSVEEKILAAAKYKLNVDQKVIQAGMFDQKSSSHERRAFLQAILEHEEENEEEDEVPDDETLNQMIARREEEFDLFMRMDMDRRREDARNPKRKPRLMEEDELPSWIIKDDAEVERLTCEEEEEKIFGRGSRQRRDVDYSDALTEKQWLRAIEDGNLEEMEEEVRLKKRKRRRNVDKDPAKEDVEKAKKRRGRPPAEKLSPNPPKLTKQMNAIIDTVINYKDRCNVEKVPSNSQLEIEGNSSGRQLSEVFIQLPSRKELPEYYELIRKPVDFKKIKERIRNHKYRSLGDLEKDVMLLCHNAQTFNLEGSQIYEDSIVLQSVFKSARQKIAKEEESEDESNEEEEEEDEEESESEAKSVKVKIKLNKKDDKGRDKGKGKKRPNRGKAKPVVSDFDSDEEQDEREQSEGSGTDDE

Row | Degradation rate of SMARCA4 in HeLa cells (%) (SMARCA4 [1]; 1 nM) | Degradation rate of SMARCA4 in HeLa cells (%) (SMARCA4 [1]; 80 nM) | Degradation rate of SMARCA4 in SW1573 cells (%) (SMARCA4 [2]; 1 nM) | Degradation rate of SMARCA4 in SW1573 cells (%) (SMARCA4 [2]; 80 nM) | Degradation rate of SMARCA2 in HeLa cells (%) (SMARCA2 [3]; 1 nM) | Degradation rate of SMARCA2 in HeLa cells (%) (SMARCA2 [3]; 80 nM) | Degradation rate of SMARCA2 in SW1573 cells (%) (SMARCA2 [4]; 1 nM) | Degradation rate of SMARCA2 in SW1573 cells (%) (SMARCA2 [4]; 80 nM) | Dmax at 0.001 µM (SMARCA4 [1]; 1 nM) [%] | Dmax at 0.08 µM (SMARCA4 [1]; 80 nM) [%] | Dmax at 0.001 µM (SMARCA4 [2]; 1 nM) [%] | Dmax at 0.08 µM (SMARCA4 [2]; 80 nM) [%] | Structure (SMILES)
1 |  |  |  |  | -10 | 29 | -29 | -75 | -34 | -1 | 12 | 11 | Nc1nnc(-c2ccccc2O)cc1C#CC1CCC2(CC1)CC(N1CCC3(CCc4ccc(NC5CCC(=O)NC5=O)cc4O3)CC1)C2 (stereo not shown) [SM-P-24, 3-((1'-(7-((3-amino-6-(2-hydroxyphenyl)pyridazin-4-yl)ethynyl)spiro[3.5]nonan-2-yl)spiro[chromane-2,4'-piperidin]-7-yl)amino)piperidine-2,6-dione]
2 |  |  |  |  | 7 | 68 | 1 | 66 | -52 | 28 | -29 | 39 | Nc1nnc(-c2ccccc2O)cc1C#CC1CCC2(CC1)CC(N1CCC3(CCc4cc(C(=O)N[C@H]5CCC(=O)NC5=O)c(F)cc4O3)CC1)C2 (stereo partly shown) [SM-P-7]

The next lines start with the compound.

Row | Structure (SMILES) | Degradation rate of SMARCA4 in HeLa cells (%) (SMARCA4 [1]; 1 nM) | Degradation rate of SMARCA4 in HeLa cells (%) (SMARCA4 [1]; 80 nM) | Degradation rate of SMARCA4 in SW1573 cells (%) (SMARCA4 [2]; 1 nM) | Degradation rate of SMARCA4 in SW1573 cells (%) (SMARCA4 [2]; 80 nM) | Degradation rate of SMARCA2 in HeLa cells (%) (SMARCA2 [3]; 1 nM) | Degradation rate of SMARCA2 in HeLa cells (%) (SMARCA2 [3]; 80 nM) | Degradation rate of SMARCA2 in SW1573 cells (%) (SMARCA2 [4]; 1 nM) | Degradation rate of SMARCA2 in SW1573 cells (%) (SMARCA2 [4]; 80 nM) | Dmax at 0.001 µM (SMARCA4 [1]; 1 nM) [%] | Dmax at 0.08 µM (SMARCA4 [1]; 80 nM) [%] | Dmax at 0.001 µM (SMARCA4 [2]; 1 nM) [%] | Dmax at 0.08 µM (SMARCA4 [2]; 80 nM) [%]
3 | Nc1nnc(-c2ccccc2O)cc1C#CC1CCC2(CC1)CC(N1CCN3c4ccc(C(=O)N[C@H]5CCC(=O)NC5=O)cc4OC[C@@H]3C1)C2 (stereo partly shown) [SM-P-20] | 32 | 65 | -56 | 22 | 23 | 86 | 12 | 76 |  |  |  | 
4 | Nc1nnc(-c2ccccc2O)cc1C#CC1CCC2(CC1)CC(N1CCN3c4ccc(C(=O)N[C@H]5CCC(=O)NC5=O)cc4OCC[C@H]3C1)C2 (stereo partly drawn) [SM-P-13, (S)-3-(7-((3-amino-6-(2-hydroxyphenyl)pyridazin-4-yl)ethynyl)spiro[3.5]nonan-2-yl)-N-((S)-2,6-dioxopyrimidin-3-yl)-2,3,4,4a,5,6-hexahydro-1H-benzo[b]pyrazino[1,2-d] [1,4]oxythiophene-9-carboxamide] | 19 | 65 | -11 | 32 | 38 | 96 | 32 | 88 |  |  |  | 
5 | Nc1nnc(-c2ccccc2O)cc1C#CC1CCC2(CC1)CC(N1CCC3(CC1)Cc1ccc(NC4CCC(=O)NC4=O)cc1O3)C2 (stereo not shown) [SM-P-25, 3-((1'-(7-((3-amino-6-(2-hydroxyphenyl)pyridazin-4-yl)ethynyl)spiro[3.5]nonan-2-yl)-3H-spiro[benzofuran-2,4'-piperidin]-6-yl)amino)piperidine-2,6-dione] |  |  |  |  | 10 | 53 | 11 | 50 | 6 | 42 | -21 | -10
